Experimental data as given in ChEMBL document CHEMBL1134245, “Two novel and potent 3-[(o-methoxyphenyl)piperazinylethyl]-5-phenylthien” (Bioorg Med Chem Lett, 2001).

Tests used:
D(2) dopamine receptor = D(2) dopamine receptor (Rattus norvegicus, UniProt P61169); assay: Ancillary Binding affinity towards rat Dopamine receptor D2
[1] = target: T1, Alpha-1A adrenergic receptor (Rattus norvegicus, UniProt P43140); assay: Binding affinity towards rat Alpha-1A adrenergic receptor
T1 sequence (P43140 whole entry): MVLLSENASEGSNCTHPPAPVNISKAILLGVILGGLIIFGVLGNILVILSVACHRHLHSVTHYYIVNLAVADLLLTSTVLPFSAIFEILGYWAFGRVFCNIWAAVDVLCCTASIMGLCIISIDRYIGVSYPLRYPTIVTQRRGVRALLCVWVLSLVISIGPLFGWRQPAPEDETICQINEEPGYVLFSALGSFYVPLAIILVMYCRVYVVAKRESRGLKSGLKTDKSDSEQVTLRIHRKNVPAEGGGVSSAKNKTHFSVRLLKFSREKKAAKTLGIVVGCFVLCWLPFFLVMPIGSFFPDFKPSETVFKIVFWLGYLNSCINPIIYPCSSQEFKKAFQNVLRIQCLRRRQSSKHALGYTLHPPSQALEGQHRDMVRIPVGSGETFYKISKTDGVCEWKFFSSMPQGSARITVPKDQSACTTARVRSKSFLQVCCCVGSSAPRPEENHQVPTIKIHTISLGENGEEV

[2] = target: T2, Alpha-2C adrenergic receptor (Homo sapiens, UniProt P18825); assay: Ancillary Binding affinity to cloned human Alpha-2C adrenergic receptor
T2 sequence (P18825 whole entry): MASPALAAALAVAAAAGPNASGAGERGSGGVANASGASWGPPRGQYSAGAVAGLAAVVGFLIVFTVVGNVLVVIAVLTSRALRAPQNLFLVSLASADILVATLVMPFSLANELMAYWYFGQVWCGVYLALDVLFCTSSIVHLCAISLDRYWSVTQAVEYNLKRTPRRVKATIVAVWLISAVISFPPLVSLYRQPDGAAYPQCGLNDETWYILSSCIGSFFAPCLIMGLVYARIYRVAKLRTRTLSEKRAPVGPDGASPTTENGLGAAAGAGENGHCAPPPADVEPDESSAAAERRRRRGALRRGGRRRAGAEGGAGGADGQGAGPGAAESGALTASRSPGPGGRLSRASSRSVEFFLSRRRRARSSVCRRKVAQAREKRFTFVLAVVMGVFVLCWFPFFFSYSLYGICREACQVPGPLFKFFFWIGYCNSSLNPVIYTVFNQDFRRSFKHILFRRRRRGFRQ

[3] = target: T3, Alpha-1A adrenergic receptor (Homo sapiens, UniProt P35348); assay: Binding affinity for human Alpha-1A adrenergic receptor
T3 sequence (P35348 whole entry): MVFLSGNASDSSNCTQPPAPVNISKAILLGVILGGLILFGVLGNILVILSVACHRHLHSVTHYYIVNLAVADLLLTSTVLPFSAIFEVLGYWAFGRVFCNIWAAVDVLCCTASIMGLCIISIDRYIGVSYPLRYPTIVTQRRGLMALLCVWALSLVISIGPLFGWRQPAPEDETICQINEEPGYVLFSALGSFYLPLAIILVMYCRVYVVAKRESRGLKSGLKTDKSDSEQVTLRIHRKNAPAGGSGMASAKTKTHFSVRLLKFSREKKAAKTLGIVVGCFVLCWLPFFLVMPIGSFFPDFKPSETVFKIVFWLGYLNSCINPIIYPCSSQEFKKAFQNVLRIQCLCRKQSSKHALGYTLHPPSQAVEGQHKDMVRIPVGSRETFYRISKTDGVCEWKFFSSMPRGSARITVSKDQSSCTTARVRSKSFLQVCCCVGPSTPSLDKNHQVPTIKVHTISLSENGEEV

[4] = target: T4, Alpha-1D adrenergic receptor (Homo sapiens, UniProt P25100); assay: Binding affinity towards human Alpha-1D adrenergic receptor
T4 sequence (P25100 whole entry): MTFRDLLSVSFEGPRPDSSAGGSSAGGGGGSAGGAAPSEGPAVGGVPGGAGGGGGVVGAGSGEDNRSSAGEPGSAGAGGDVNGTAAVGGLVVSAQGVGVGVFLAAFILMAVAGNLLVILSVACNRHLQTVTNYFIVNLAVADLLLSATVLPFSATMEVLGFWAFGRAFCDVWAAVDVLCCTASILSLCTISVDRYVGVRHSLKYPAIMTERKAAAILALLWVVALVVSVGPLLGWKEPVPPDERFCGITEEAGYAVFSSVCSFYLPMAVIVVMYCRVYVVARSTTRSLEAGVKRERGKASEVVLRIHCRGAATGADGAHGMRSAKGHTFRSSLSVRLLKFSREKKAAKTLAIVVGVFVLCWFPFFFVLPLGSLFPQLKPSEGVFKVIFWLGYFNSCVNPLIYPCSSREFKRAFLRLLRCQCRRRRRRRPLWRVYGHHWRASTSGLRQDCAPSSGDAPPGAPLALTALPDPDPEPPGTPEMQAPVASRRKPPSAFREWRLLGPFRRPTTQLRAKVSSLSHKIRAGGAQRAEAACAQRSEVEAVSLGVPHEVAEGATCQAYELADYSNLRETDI

[5] = target: T5, Alpha-1A adrenergic receptor (Bos taurus, UniProt P18130); assay: Binding affinity towards bovine Alpha-1A adrenergic receptor
T5 sequence (P18130 whole entry): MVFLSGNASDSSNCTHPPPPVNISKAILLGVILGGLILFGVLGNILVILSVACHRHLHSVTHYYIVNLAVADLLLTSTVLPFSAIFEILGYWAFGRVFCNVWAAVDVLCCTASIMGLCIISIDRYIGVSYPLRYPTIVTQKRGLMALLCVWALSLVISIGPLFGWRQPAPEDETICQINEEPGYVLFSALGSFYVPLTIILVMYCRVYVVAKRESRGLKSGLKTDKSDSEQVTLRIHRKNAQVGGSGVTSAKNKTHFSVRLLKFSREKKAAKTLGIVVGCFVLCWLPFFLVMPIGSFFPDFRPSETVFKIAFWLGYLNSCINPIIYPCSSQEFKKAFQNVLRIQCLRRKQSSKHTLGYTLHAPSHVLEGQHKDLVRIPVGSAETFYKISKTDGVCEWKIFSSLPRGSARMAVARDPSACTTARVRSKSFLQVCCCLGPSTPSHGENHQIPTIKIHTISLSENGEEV

[6] = target: T1, Alpha-1A adrenergic receptor; assay: In vitro functional activity at Alpha-1A adrenergic receptor in rat vas deferens; type: tissue-based; settings: read-out: pA2 (converted)

Chain of D(2) dopamine receptor (P61169 whole entry): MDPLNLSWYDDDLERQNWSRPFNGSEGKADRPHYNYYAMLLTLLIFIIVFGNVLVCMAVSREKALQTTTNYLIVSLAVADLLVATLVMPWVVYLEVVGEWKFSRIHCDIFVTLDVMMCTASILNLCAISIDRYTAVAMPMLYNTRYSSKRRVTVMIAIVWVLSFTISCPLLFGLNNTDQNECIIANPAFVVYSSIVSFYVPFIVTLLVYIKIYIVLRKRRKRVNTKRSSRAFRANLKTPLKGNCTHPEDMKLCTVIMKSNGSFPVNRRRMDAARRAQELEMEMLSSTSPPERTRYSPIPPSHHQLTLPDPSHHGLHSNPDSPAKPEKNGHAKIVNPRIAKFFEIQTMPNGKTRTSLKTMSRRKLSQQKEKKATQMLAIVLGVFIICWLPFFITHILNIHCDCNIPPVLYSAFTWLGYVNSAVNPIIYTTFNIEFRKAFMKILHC

| Ki (D(2) dopamine receptor) | Ki [1] | Ki [2] | Ki [3] | Ki [4] | Ki [5] | Kb [6] | SMILES |
| --- | --- | --- | --- | --- | --- | --- | --- |
| 50 nM | 2.43 nM | 74.7 nM | 2.63 nM | 0.252 nM | 0.274 nM | 8.51 nM | COc1ccccc1N1CCN(CCn2c(=O)[nH]c3scc(-c4ccccc4)c3c2=O)CC1 [A-119637] |
| 17 nM | 3.47 nM | 82 nM | 4.17 nM | 0.312 nM | 0.348 nM | 4.37 nM | COc1ccccc1N1CCN(CCn2c(=O)[nH]c3scc(-c4cccc(C)c4)c3c2=O)CC1 [A-123189] |
